From patent US20220326218A1, “COMPOSITION AND METHOD FOR INHIBITING BORC COMPLEX TO TREAT CANCERS WITH NF1 DEFICIENCY AND DYSREGULATED RAS SIGNALING” (THE TRUSTEES OF DARTMOUTH COLLEGE, priority 2019, published 2022)

What was measured:
Assay type in all cases: cell-based, human
sequestosome-1 (p62) = test: Immunofluorescence staining for p62; details: U87-MG, 24 h; 2 μM Y102, 50 μM HCQ; HCQ and Y102 compared with each other
Protocol: (§1) U87-MG cells were plated at a concentration of 50,000 cells/well onto precoated poly-D-lysine (PDL) coverslips (Neuvitro) in 24-well plates (Falcon) and allowed to adhere overnight. Medium was removed and replaced with treatment-laced media normalized to DMSO, and cells were treated for the indicated timepoints. At the time of collection, cells were washed with PBS and fixed with 4% paraformaldehyde without methanol (EMS) or 100% methanol (Fischer). Coverslips were washed with Tween20-containing PBS (PBST; Fischer). Following permeabilization with 0.5% Triton X-100 in PBS (Fischer), coverslips were blocked for 1 h at room temperature in IF Buffer (0.05% azide, 0.2% Triton X-100, 2% Normal Goat Serum or, for 8-OHG, Normal Donkey Serum). The following primary antibodies were used for 1 hour at room temperature unless specified: AlexaFluor 488 pre-conjugated anti-γ-H2AX (N1-431) mouse monoclonal (30 minutes; BD Biosciences), anti-cleaved caspase 3 (Asp175) rabbit polyclonal (Cell Signaling), anti-SQSTM1/p62 (D-3) mouse monoclonal (Santa Cruz), anti-8-Hydroxyguanosine goat polyclonal (1:200; Millipore), anti-LAMP1 (D4O1S) mouse monoclonal (O/N at 4° C.; Cell Signaling), anti-BNIP3L/Nix (D4R4B) rabbit monoclonal (O/N at 4° C.; Cell Signaling), anti-FLAG (M2) mouse monoclonal (2 hours at 37° C.; Sigma-Aldrich). […]

mitochondria = test: MitoTracker Red CMXRos staining of the mitochondrial network; details: U87-MG, 24 h; 2 μM Y102, 50 μM HCQ
Protocol: For MitoTracker Red CMXRos staining, 30 minutes prior to collection medium was removed and replaced with medium containing MitoTracker Red CMXRos at a final concentration of 100 nM (Molecular Probes). Following staining, cells were washed with PBS and fixed with 4% paraformaldehyde without methanol. Cells were washed with PBST, then permeabilized with 0.5% Triton X-100 in PBS. When co-staining with another marker, the staining procedure continued with the blocking step; otherwise, cells were stained with 0.33 μg/mL DAPI in PBS and mounted onto slides in ProLong Gold (Life Technologies).

BNIP3L/Nix = test: Immunofluorescence staining for mitophagy receptor BNIP3L/Nix; details: U87-MG, 24 h; 2 μM Y102, 100 μM CoCl2; CoCl2 and Y102 compared with each other
Protocol: as §1

U87-MG cells = test: Flow cytometry cell cycle distribution (DNA content); details: 2 μM, 24 h
Protocol: U87-MG cells were plated at 500,000 cells/well in a 6-well plate and allowed to adhere overnight. The medium was replaced with cell culture media containing DMSO, 2 μM Y102, 100 nM Doxorubicin, or 100 μM CoCl2 for 24 hours. At the end of the incubation, cells were rinsed twice with PBS, trypsinized, and rinsed again with PBS prior to fixation with BD cytofix/cytoperm for 30 minutes on ice. After washing with BD perm/wash twice, cells were stained with DAPI at a final concentration 0.33 μg/mL in PBS for 30 minutes on ice. Cells were washed twice more with BD perm/wash, and resuspended in PBS for analysis. The cells were transferred to flow cytometry tubes (14-961-10, Fisherbrand) and analyzed using a MacsQuant VYB 8-color flow cytometer. DNA content was detected using the V1 channel. This experiment was repeated twice, and the percentage of cells in each cell cycle stage is shown. 50,000 events per sample were collected and cellular debris was gated out of the dataset.

Q: For `Cn1cnnc1S/C=C/C(=O)c1ccc(F)cc1` [Y102], which “p62 expression compared to DMSO (immunofluorescence)” value (sequestosome-1 (p62)) is on record?
A: The value was “increased”.

Q: And the “mitochondrial phenotype (perinuclear clustering)” value (mitochondria)?
A: The value was “perinuclear clustering of the mitochondria”.

Q: And the “expression/localization of BNIP3L/Nix on the mitochondria compared to DMSO control” value (BNIP3L/Nix)?
A: Its value is “increase”.

Q: And the “cell cycle arrest (cell cycle distribution by DNA content)” value (U87-MG cells)?
A: The value was “no indication”.
